{
  "source": "patent US20220281848A1",
  "about": "“PYRAZOLE-SUBSTITUTED PYRROLIDINONES AS HERBICIDES” (FMC Corporation, priority 2019, published 2022)",
  "system": "plants",
  "test": "Test D pre-emergence, other plants of Tables D1 and D3",
  "type": "in vivo",
  "details": "for damage to plant, ALOMY / damage to plant, AVEFA / damage to plant, BEAVA / damage to plant, BROTE / damage to plant, BRSNN / damage to plant, CHEAL / damage to plant, GALAP / damage to plant, HORVW / damage to plant, KCHSC / damage to plant, LOLPE / damage to plant, POAAN / damage to plant, POLCO / damage to plant, SINAR / damage to plant, STEME / damage to plant, VERPE: pre-emergence, 100=total damage, 0=no damage",
  "procedure": "A formulation containing 50 g/L of the test chemical was prepared by dissolving the active ingredient in a mixture of organic solvents and emulsifier, details of which are provided in the table. This formulation was then mixed with a small, variable amount of acetone to aid dissolution, before addition of a 0.2% v/v aqueous solution of an adjuvant, as the aqueous diluent, to form an aqueous spray solution which contains a predetermined concentration of the active ingredient.\nThis aqueous spray solution was then sprayed onto plants including maize and wheat that had been seed treated with a herbicide safener, after one day's cultivation (for pre-emergence) or after about 12 days' cultivation (for post-emergence). The plants were grown from seeds sown in standard soil, placed in a glasshouse under controlled conditions (at 24/18° C. or 20/16° C., day/night; 16 h light; 65% humidity). After spray application the plants were then grown in a glasshouse under the same conditions and watered twice daily. After 15 d for post-emergence and 20 DAA for pre-emergence the test was evaluated (100=total damage to plant; 0=no damage to plant).",
  "data": [
    {"smiles": "CN1CC(c2cc(C(F)(F)F)n(C)n2)C(C(=O)Nc2ccccc2F)C1=O", "note": "(racemic) [Compound 9]", "values": [
      {"measurement": "damage to plant (100=total damage to plant; 0=no damage to plant), SORVU", "setting": "SORVU, preemergent, rate 500, 20 DAA", "result": 0},
      {"measurement": "damage to plant, ALOMY", "setting": "rate 15, 20 DAA", "result": 0},
      {"measurement": "damage to plant, AVEFA", "setting": "rate 15, 20 DAA", "result": 0},
      {"measurement": "damage to plant, BEAVA", "setting": "rate 15, 20 DAA", "result": 0},
      {"measurement": "damage to plant, BROTE", "setting": "rate 15, 20 DAA", "result": 0},
      {"measurement": "damage to plant, BRSNN", "setting": "rate 15, 20 DAA", "result": 0},
      {"measurement": "damage to plant, CHEAL", "setting": "rate 15, 20 DAA", "result": 0},
      {"measurement": "damage to plant, GALAP", "setting": "rate 15, 20 DAA", "result": 0},
      {"measurement": "damage to plant, HORVW", "setting": "rate 15, 20 DAA", "result": 0},
      {"measurement": "damage to plant, KCHSC", "setting": "rate 15, 20 DAA", "result": 0},
      {"measurement": "damage to plant, LOLPE", "setting": "rate 15, 20 DAA", "result": 0},
      {"measurement": "damage to plant, POAAN", "setting": "rate 15, 20 DAA", "result": 0},
      {"measurement": "damage to plant, POLCO", "setting": "rate 15, 20 DAA", "result": 0},
      {"measurement": "damage to plant, SINAR", "setting": "rate 15, 20 DAA", "result": 0},
      {"measurement": "damage to plant, STEME", "setting": "rate 15, 20 DAA", "result": 0},
      {"measurement": "damage to plant, VERPE", "setting": "rate 15, 20 DAA", "result": 0},
      {"measurement": "damage to plant, ALOMY", "setting": "rate 30, 20 DAA", "result": 0},
      {"measurement": "damage to plant, AVEFA", "setting": "rate 30, 20 DAA", "result": 0},
      {"measurement": "damage to plant, BEAVA", "setting": "rate 30, 20 DAA", "result": 0},
      {"measurement": "damage to plant, BROTE", "setting": "rate 30, 20 DAA", "result": 0},
      {"measurement": "damage to plant, BRSNN", "setting": "rate 30, 20 DAA", "result": 0},
      {"measurement": "damage to plant, CHEAL", "setting": "rate 30, 20 DAA", "result": 0},
      {"measurement": "damage to plant, GALAP", "setting": "rate 30, 20 DAA", "result": 0},
      {"measurement": "damage to plant, HORVW", "setting": "rate 30, 20 DAA", "result": 0},
      {"measurement": "damage to plant, KCHSC", "setting": "rate 30, 20 DAA", "result": 0},
      {"measurement": "damage to plant, LOLPE", "setting": "rate 30, 20 DAA", "result": 0},
      {"measurement": "damage to plant, POAAN", "setting": "rate 30, 20 DAA", "result": 0},
      {"measurement": "damage to plant, POLCO", "setting": "rate 30, 20 DAA", "result": 0},
      {"measurement": "damage to plant, SINAR", "setting": "rate 30, 20 DAA", "result": 0},
      {"measurement": "damage to plant, STEME", "setting": "rate 30, 20 DAA", "result": 0},
      {"measurement": "damage to plant, VERPE", "setting": "rate 30, 20 DAA", "result": 0},
      {"measurement": "damage to plant, ALOMY", "setting": "rate 60, 20 DAA", "result": 0},
      {"measurement": "damage to plant, AVEFA", "setting": "rate 60, 20 DAA", "result": 0},
      {"measurement": "damage to plant, BEAVA", "setting": "rate 60, 20 DAA", "result": 0},
      {"measurement": "damage to plant, BROTE", "setting": "rate 60, 20 DAA", "result": 0},
      {"measurement": "damage to plant, BRSNN", "setting": "rate 60, 20 DAA", "result": 0},
      {"measurement": "damage to plant, CHEAL", "setting": "rate 60, 20 DAA", "result": 0},
      {"measurement": "damage to plant, GALAP", "setting": "rate 60, 20 DAA", "result": 0},
      {"measurement": "damage to plant, HORVW", "setting": "rate 60, 20 DAA", "result": 0},
      {"measurement": "damage to plant, KCHSC", "setting": "rate 60, 20 DAA", "result": 0},
      {"measurement": "damage to plant, LOLPE", "setting": "rate 60, 20 DAA", "result": 0},
      {"measurement": "damage to plant, POAAN", "setting": "rate 60, 20 DAA", "result": 0},
      {"measurement": "damage to plant, POLCO", "setting": "rate 60, 20 DAA", "result": 0},
      {"measurement": "damage to plant, SINAR", "setting": "rate 60, 20 DAA", "result": 0},
      {"measurement": "damage to plant, STEME", "setting": "rate 60, 20 DAA", "result": 0},
      {"measurement": "damage to plant, VERPE", "setting": "rate 60, 20 DAA", "result": 0},
      {"measurement": "damage to plant, ALOMY", "setting": "rate 130, 20 DAA", "result": 0},
      {"measurement": "damage to plant, AVEFA", "setting": "rate 130, 20 DAA", "result": 0},
      {"measurement": "damage to plant, BEAVA", "setting": "rate 130, 20 DAA", "result": 0},
      {"measurement": "damage to plant, BROTE", "setting": "rate 130, 20 DAA", "result": 0},
      {"measurement": "damage to plant, BRSNN", "setting": "rate 130, 20 DAA", "result": 0},
      {"measurement": "damage to plant, CHEAL", "setting": "rate 130, 20 DAA", "result": 0},
      {"measurement": "damage to plant, GALAP", "setting": "rate 130, 20 DAA", "result": 0},
      {"measurement": "damage to plant, HORVW", "setting": "rate 130, 20 DAA", "result": 0},
      {"measurement": "damage to plant, KCHSC", "setting": "rate 130, 20 DAA", "result": 0},
      {"measurement": "damage to plant, LOLPE", "setting": "rate 130, 20 DAA", "result": 0},
      {"measurement": "damage to plant, POAAN", "setting": "rate 130, 20 DAA", "result": 10},
      {"measurement": "damage to plant, POLCO", "setting": "rate 130, 20 DAA", "result": 0},
      {"measurement": "damage to plant, SINAR", "setting": "rate 130, 20 DAA", "result": 0},
      {"measurement": "damage to plant, STEME", "setting": "rate 130, 20 DAA", "result": 0},
      {"measurement": "damage to plant, VERPE", "setting": "rate 130, 20 DAA", "result": 0},
      {"measurement": "damage to plant, ALOMY", "setting": "rate 250, 20 DAA", "result": 0},
      {"measurement": "damage to plant, AVEFA", "setting": "rate 250, 20 DAA", "result": 10},
      {"measurement": "damage to plant, BEAVA", "setting": "rate 250, 20 DAA", "result": 0},
      {"measurement": "damage to plant, BROTE", "setting": "rate 250, 20 DAA", "result": 0},
      {"measurement": "damage to plant, BRSNN", "setting": "rate 250, 20 DAA", "result": 0},
      {"measurement": "damage to plant, CHEAL", "setting": "rate 250, 20 DAA", "result": 0},
      {"measurement": "damage to plant, GALAP", "setting": "rate 250, 20 DAA", "result": 0},
      {"measurement": "damage to plant, HORVW", "setting": "rate 250, 20 DAA", "result": 0},
      {"measurement": "damage to plant, KCHSC", "setting": "rate 250, 20 DAA", "result": 0},
      {"measurement": "damage to plant, LOLPE", "setting": "rate 250, 20 DAA", "result": 30},
      {"measurement": "damage to plant, POAAN", "setting": "rate 250, 20 DAA", "result": 10},
      {"measurement": "damage to plant, POLCO", "setting": "rate 250, 20 DAA", "result": 0},
      {"measurement": "damage to plant, SINAR", "setting": "rate 250, 20 DAA", "result": 0},
      {"measurement": "damage to plant, STEME", "setting": "rate 250, 20 DAA", "result": 10},
      {"measurement": "damage to plant, VERPE", "setting": "rate 250, 20 DAA", "result": 0},
      {"measurement": "damage to plant, ALOMY", "setting": "rate 500, 20 DAA", "result": 0},
      {"measurement": "damage to plant, AVEFA", "setting": "rate 500, 20 DAA", "result": 20},
      {"measurement": "damage to plant, BEAVA", "setting": "rate 500, 20 DAA", "result": 0},
      {"measurement": "damage to plant, BROTE", "setting": "rate 500, 20 DAA", "result": 0},
      {"measurement": "damage to plant, BRSNN", "setting": "rate 500, 20 DAA", "result": 0},
      {"measurement": "damage to plant, CHEAL", "setting": "rate 500, 20 DAA", "result": 0},
      {"measurement": "damage to plant, GALAP", "setting": "rate 500, 20 DAA", "result": 10},
      {"measurement": "damage to plant, HORVW", "setting": "rate 500, 20 DAA", "result": 0},
      {"measurement": "damage to plant, KCHSC", "setting": "rate 500, 20 DAA", "result": 0},
      {"measurement": "damage to plant, LOLPE", "setting": "rate 500, 20 DAA", "result": 20},
      {"measurement": "damage to plant, POAAN", "setting": "rate 500, 20 DAA", "result": 50},
      {"measurement": "damage to plant, POLCO", "setting": "rate 500, 20 DAA", "result": 0},
      {"measurement": "damage to plant, SINAR", "setting": "rate 500, 20 DAA", "result": 0},
      {"measurement": "damage to plant, STEME", "setting": "rate 500, 20 DAA", "result": 80},
      {"measurement": "damage to plant, VERPE", "setting": "rate 500, 20 DAA", "result": 0}
    ]}
  ]
}
